Measured values reported in publication PMC8037650, “Biochemical Characterization of Recombinant UDPG-Dependent IAA Glucosyltransferase from Maize (Zea mays)” (International Journal of Molecular Sciences, 2021).

Legend:
[1] = molecular target: T1, IAGlc synthase (Zea mays, UniProt Q41819); experiment: coupled spectrophotometric assay, […] acceptor (relative activity); type: biochemical
T1 construct: gene IAGLU; recombinant, N-terminally His-tagged, expressed in E. coli
T1 sequence (Q41819 1-471): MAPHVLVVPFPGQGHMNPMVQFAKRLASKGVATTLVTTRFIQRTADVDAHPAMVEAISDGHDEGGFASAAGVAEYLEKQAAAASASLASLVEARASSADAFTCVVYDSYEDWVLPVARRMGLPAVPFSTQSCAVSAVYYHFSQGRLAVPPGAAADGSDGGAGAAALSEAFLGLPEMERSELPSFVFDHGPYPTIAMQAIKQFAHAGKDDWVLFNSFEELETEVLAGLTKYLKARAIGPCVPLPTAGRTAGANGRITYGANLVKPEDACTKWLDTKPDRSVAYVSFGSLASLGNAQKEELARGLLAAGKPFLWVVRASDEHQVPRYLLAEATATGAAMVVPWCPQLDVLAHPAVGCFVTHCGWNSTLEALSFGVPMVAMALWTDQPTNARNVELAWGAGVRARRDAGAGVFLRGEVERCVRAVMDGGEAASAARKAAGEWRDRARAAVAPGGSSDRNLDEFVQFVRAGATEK

[2] = molecular target: T1, IAGlc synthase; experiment: […]IAA glucosylation TLC radioassay, Dixon plot; type: biochemical

SMILES | Relative Activity (%) [1] [%] | Ki [2] [µM]
O=C(O)CCCc1c[nH]c2ccccc12 [IBA, indole-3-butyric acid] | 66 | 
O=C(O)CCc1c[nH]c2ccccc12 [IPA, indole-3-propionic acid] | 49.7 | 
O=C(O)COc1ccc(Cl)cc1Cl [2,4-D, 2,4-dichlorophenoxyacetic acid] |  | 117 ± 10
